These results are taken from patent US11466034B2, “Compound functioning as bromodomain protein inhibitor, and composition” (Betta Pharmaceuticals Co., Ltd., priority 2017, dated 2022).

Data set [1] in a line: Stability test of Compound 19 crystalline form I (XRD). It is filed as physicochemical.
The next data set addresses BRD4(D1) (Homo sapiens (Human), UniProt O60885). Kind of data set: Inhibitory activity against BRD4(D1), HTRF assay. Particulars: class symbols. Format: binding. In short, it runs like this: (§1)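 HTRF assay: serially diluted compounds (0.1% DMSO final) mixed with protein/peptide mixture and assay mixture, 2 h at room temperature. Inhibition calculated from max/min signal controls; IC50 by four-parameter logistic fit. Conditions identical for D1 and D2 domains.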
Background: In TR-FRET formats the signal depends on donor and acceptor labels being close together.

The target in another data set is BRD4(D2) (Homo sapiens (Human), UniProt O60885). Kind of data set: Inhibitory activity against BRD4(D2), HTRF assay. Format: binding. Particulars: class symbols. In short, it runs like this: as §1
The nature of data set [2]: Pharmacokinetic assay in male SD rats, single gavage. It is filed as in vivo. The note with it: Sprague-Dawley (SD), rat, oral dose 20 mg/kg, plasma. The procedure: Male SD rats were offered by Beijing Vital River Laboratory Animal Technology Co., Ltd., the rats were divided into groups of 3, and the suspension of the test sample (5 mg/kg-20 mg/kg) was given by single gavage. The animals were fasted overnight before the experiment, the fasting time was from 10 hours before the administration to 4 hours after the administration. Blood was collected at 0.25, 0.5, 1, 2, 4, 7, and 24 hours after administration. Blood was collected from fundus venous plexus, and placed in EDTA-K2 anticoagulation tube. The sample was centrifuged at 4° C. and 4000 rpm for 10 min, the plasma was transferred into centrifuge tubes and the compound to be test was extracted by protein precipitation, the extract was analyzed by LC-MS/MS.

For `Cc1nc2ncc(-c3cn(C)c(=O)c4[nH]ccc34)nc2n1Cc1ccc(C(F)(F)F)cc1` [Crystalline Form I of compound 19, 6-methyl-4-(2-methyl-1-(4-(trifluoromethyl)benzyl)-1H-imidazo[4,5-b]pyrazin-6-yl)-1H-pyrrolo[2,3-c]pyridin-7(6H)-one], the “solid form stability (XRD)” value in data set [1] (25° C.-60% RH for 10 days), in data set [1] (40° C.-75% RH for 14 days) and in data set [1] (dried at 80° C. for 24 hours) was “no solid form change” throughout.

`Cc1nc2ncc(-c3cn(C)c(=O)c4[nH]ccc34)nc2n1Cc1cc(F)cc(C(F)(F)F)c1` [Example 25, 4-(1-(3-fluoro-5-trifluoromethylbenzyl)-2-methyl-1H-imidazo[4,5-b]pyrazin-6-yl)-6-methyl-1H-pyrrolo[2,3-c]pyridin-7(6H)-one] had an IC50 on BRD4(D1) of less than 100 nM. In addition, the IC50 against BRD4(D2) is less than 100 nM. In data set [2], this compound had an AUC(0-t) of 13500 ng·h/mL, a Cmax of 1230 ng/mL and a half-life of 12.1 h.

For orientation: IC50 means the concentration that gives 50% inhibition. A low value points to greater potency. A word on the AUC(0-t): it is exposure summed from dosing to a finite time, without extrapolation to infinity. Read a low AUC(0-t) as low exposure. For orientation: Cmax means the peak of the concentration-time curve. A word on the half-life: it is the time in which the quantity being followed falls by half. Lower therefore signals fast loss.
